Experimental data reported in ChEMBL document CHEMBL6074660, “Recent advances in peptoids as promising antimicrobial agents to target diverse microbial species” (Eur J Med Chem, 2024).
Numbered stars: 1 amine (or outer) side, 2 acyl side, 3 side chain; on linkers, the order of the positions; unused ones are H or OH. Square brackets hold non-standard residues; d marks the D form. Peptide text beside a SMILES is read from it. dAla(N-(6-guanidinohexyl)) = C[C@@H](NCCCCCCNC(=N)N)C(=O)O; X1 = C[C@@H](C(=O)[*:2])N(CCCCCCN)[*:1]; X2 = C[C@H](C(=O)[*:2])N(CCCCCCN)[*:1]; 2Nal = N[C@@H](Cc1ccc2ccccc2c1)C(=O)O; X5 = C[C@H](C(=O)[*:2])N(CCCCCN)[*:1]; Gly(N-2-aminoethyl) = NCCNCC(=O)O; Nspe = C[C@H](NCC(=O)O)c1ccccc1

Tested on: Leishmania amazonensis
Assay: Antileishmanial activity against Leishmania amazonensis promastigotes assessed as inhibition of parasite growth at 10 uM incubated for 24 hrs relative to control
Format: functional
Set-up: scale not given: the % may be the effect or the level left
Settings: not given

| Compound | Activity |
| --- | --- |
| CCCCN(C(C)=O)C(C(=O)NCS(=O)(=O)c1ccc(C)cc1)c1ccccc1 (stereo unspecified) | 66.83% |

Tested on: Leishmania mexicana
Assay: Antileishmanial activity against Leishmania mexicana amastigotes
Format: functional
Settings: read-out: ED50 (the source's name)

| EC50 | Compound |
| --- | --- |
| 17000 nM | C[C@@H](c1ccccc1)N(CC(N)=O)C(=O)CN(C(=O)CN(CCN)C(=O)CN(C(=O)CN(C(=O)CN(CCN)C(=O)CN(C(=O)CN(C(=O)CN(CCN)C(=O)CN(C(=O)CN(C(=O)CNCCN)[C@@H](C)c1ccccc1)[C@@H](C)c1ccccc1)[C@@H](C)c1ccccc1)[C@@H](C)c1ccccc1)[C@@H](C)c1ccccc1)[C@@H](C)c1ccccc1)[C@@H](C)c1ccccc1 (H-[Gly(N-2-aminoethyl)][Nspe][Nspe][Gly(N-2-aminoethyl)][Nspe][Nspe][Gly(N-2-aminoethyl)][Nspe][Nspe][Gly(N-2-aminoethyl)][Nspe][Nspe]-NH2) |

Molecular target: C-X-C chemokine receptor type 4 (Homo sapiens, UniProt P61073)
Assay: Inhibition of CXCR4 receptor (unknown origin)
Settings: not given

Chain of C-X-C chemokine receptor type 4 (P61073 whole entry): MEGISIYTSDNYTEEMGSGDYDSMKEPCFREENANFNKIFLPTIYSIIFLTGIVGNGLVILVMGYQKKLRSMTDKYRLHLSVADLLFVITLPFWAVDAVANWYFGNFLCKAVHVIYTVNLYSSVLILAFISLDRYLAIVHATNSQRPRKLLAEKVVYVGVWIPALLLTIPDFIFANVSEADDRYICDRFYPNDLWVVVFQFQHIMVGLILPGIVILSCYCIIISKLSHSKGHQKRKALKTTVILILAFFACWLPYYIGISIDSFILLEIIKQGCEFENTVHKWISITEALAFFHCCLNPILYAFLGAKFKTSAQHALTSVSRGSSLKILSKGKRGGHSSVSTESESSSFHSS

| IC50 | Compound |
| --- | --- |
| 94000 nM | C[C@H]1C(=O)N[C@@H](CCCNC(=N)N)C(=O)N[C@@H](Cc2ccc3ccccc3c2)C(=O)NCC(=O)N[C@H](Cc2ccc(O)cc2)C(=O)N1CCCCCCN (cyclo([2Nal]G[dY][X1]R)) |
| 1600 nM | C[C@@H]1C(=O)N[C@@H](CCCNC(=N)N)C(=O)N[C@@H](Cc2ccc3ccccc3c2)C(=O)NCC(=O)N[C@H](Cc2ccc(O)cc2)C(=O)N1CCCCCN (cyclo([2Nal]G[dY][X5]R)) |
| 300 nM | C[C@@H]1C(=O)N[C@@H](CCCNC(=N)N)C(=O)N[C@@H](Cc2ccc3ccccc3c2)C(=O)NCC(=O)N[C@H](Cc2ccc(O)cc2)C(=O)N1CCCCCCN (cyclo([2Nal]G[dY][X2]R)) |
| 40 nM | C[C@@H]1C(=O)N[C@@H](CCCNC(=N)N)C(=O)N[C@@H](Cc2ccc3ccccc3c2)C(=O)NCC(=O)N[C@H](Cc2ccc(O)cc2)C(=O)N1CCCCCCNC(=N)N (cyclo([dY][dAla(N-(6-guanidinohexyl))]R[2Nal]G)) |

Tested on: Leishmania mexicana
Assay: Antileishmanial activity against Leishmania mexicana promastigotes
Format: functional
Settings: read-out: ED50 (the source's name)

| EC50 | Compound |
| --- | --- |
| 7000 nM | C[C@@H](c1ccccc1)N(CC(N)=O)C(=O)CN(C(=O)CN(CCN)C(=O)CN(C(=O)CN(C(=O)CN(CCN)C(=O)CN(C(=O)CN(C(=O)CN(CCN)C(=O)CN(C(=O)CN(C(=O)CNCCN)[C@@H](C)c1ccccc1)[C@@H](C)c1ccccc1)[C@@H](C)c1ccccc1)[C@@H](C)c1ccccc1)[C@@H](C)c1ccccc1)[C@@H](C)c1ccccc1)[C@@H](C)c1ccccc1 (H-[Gly(N-2-aminoethyl)][Nspe][Nspe][Gly(N-2-aminoethyl)][Nspe][Nspe][Gly(N-2-aminoethyl)][Nspe][Nspe][Gly(N-2-aminoethyl)][Nspe][Nspe]-NH2) |

Tested on: Plasmodium falciparum
Assay: Antiplasmodial activity against Plasmodium falciparum 3D7 assessed as inhibition of parasite growth
Format: functional, organism-based
Settings: not given

| Compound | IC50 |
| --- | --- |
| Cc1cc(C)cc(C(=O)N(CC(=O)NCc2ccc(C(C)(C)C)cc2)Cc2ccc(C(=O)NO)cc2)c1 | 110 nM |
| CN(C)c1ccc(C(=O)N(CC(=O)NCc2ccccc2)Cc2ccc(C(=O)NO)cc2)cc1 | 9 nM |
| Cc1cc(C)cc(C(=O)N(CC(=O)NCc2cccnc2)Cc2ccc(C(=O)NO)cc2)c1 | 70 nM |
| CC(C)c1ccc(C(=O)N(CC(=O)NCc2ccccc2)Cc2ccc(C(=O)NO)cc2)cc1 | 5 nM |
| Cc1cccc(CNC(=O)CN(Cc2ccc(C(=O)NO)cc2)C(=O)c2cc(C)cc(C)c2)c1 | 120 nM |
| CC(C)c1ccc(C(=O)N(CC(=O)NC2CCCCC2)c2ccc(C(=O)NO)cc2)cc1 | 570 nM |
| Cc1cc(C)cc(CNC(=O)CN(Cc2ccc(C(=O)NO)cc2)C(=O)c2cc(C)cc(C)c2)c1 | 70 nM |
| CNC(=O)CN(Cc1ccc(C(=O)NO)cc1)C(=O)c1cc(C)cc(C)c1 | 50 nM |
| CN(C)c1ccc(C(=O)N(Cc2ccc(C(=O)NO)cc2)C(C)(C)C(=O)NC2CCCCC2)cc1 | 90 nM |
| CN(C)c1ccc(C(=O)N(Cc2ccc(C(=O)NO)cc2)C(C(=O)NC2CCCCC2)c2ccccc2)cc1 (stereo unspecified) | 390 nM |
| CC(C)(C)c1ccc(C(=O)N(CC(=O)NCc2ccccc2)Cc2ccc(C(=O)NO)cc2)cc1 | 8 nM |
| Cc1cc(C)cc(C(=O)N(CC(=O)NCc2ccccc2)Cc2ccc(C(=O)NO)cc2)c1 | 37 nM |
| CNC(=O)CN(Cc1ccc(C(=O)NO)cc1)C(=O)c1ccccc1C | 70 nM |
| Cc1cc(C)cc(C(=O)N(CC(=O)NCc2ccc(F)cc2)Cc2ccc(C(=O)NO)cc2)c1 | 80 nM |
| Cc1ccc(CNC(=O)CN(Cc2ccc(C(=O)NO)cc2)C(=O)c2cc(C)cc(C)c2)cc1 | 42 nM |
| Cc1cc(C)cc(C(=O)N(CC(=O)NC2CCCCC2)c2ccc(C(=O)NO)cc2)c1 | 77700 nM |
| Cc1cc(C)cc(C(=O)N(CC(=O)NCc2ccc(Cl)cc2)Cc2ccc(C(=O)NO)cc2)c1 | 90 nM |
| Cc1ccccc1C(=O)N(CC(=O)NC(C)(C)C)Cc1ccc(C(=O)NO)cc1 | 110 nM |
| COc1ccc(CNC(=O)CN(Cc2ccc(C(=O)NO)cc2)C(=O)c2cc(C)cc(C)c2)cc1 | 33 nM |
| COc1ccccc1C(=O)N(CC(=O)NC(C)(C)C)Cc1ccc(C(=O)NO)cc1 | 250 nM |

Tested on: Human immunodeficiency virus 1
Assay: Antiviral activity against HIV-1
Format: functional, organism-based
Settings: not given

| EC50 | Compound |
| --- | --- |
| 979000 nM | C[C@H]1C(=O)N[C@@H](CCCNC(=N)N)C(=O)N[C@@H](Cc2ccc3ccccc3c2)C(=O)NCC(=O)N[C@H](Cc2ccc(O)cc2)C(=O)N1CCCCCCN (cyclo([2Nal]G[dY][X1]R)) |
| 53000 nM | C[C@@H]1C(=O)N[C@@H](CCCNC(=N)N)C(=O)N[C@@H](Cc2ccc3ccccc3c2)C(=O)NCC(=O)N[C@H](Cc2ccc(O)cc2)C(=O)N1CCCCCCN (cyclo([2Nal]G[dY][X2]R)) |
| 29000 nM | C[C@@H]1C(=O)N[C@@H](CCCNC(=N)N)C(=O)N[C@@H](Cc2ccc3ccccc3c2)C(=O)NCC(=O)N[C@H](Cc2ccc(O)cc2)C(=O)N1CCCCCCNC(=N)N (cyclo([dY][dAla(N-(6-guanidinohexyl))]R[2Nal]G)) |

Tested on: Leishmania amazonensis
Assay: Antileishmanial activity against Leishmania amazonensis promastigotes assessed as inhibition of parasite growth at 10 uM incubated for 48 hrs relative to control
Format: functional
Set-up: scale not given: the % may be the effect or the level left
Settings: not given

| Compound | Activity |
| --- | --- |
| CCCCN(C(C)=O)C(C(=O)NCS(=O)(=O)c1ccc(C)cc1)c1ccccc1 (stereo unspecified) | 87.87% |
